Laboratory results: patent publication US7833983B2, “Analytical method and kit thereof” (Phadia, AB, priority 2003, dated 2010)

Key:
[1] = test system: anti-Sm antibodies; test: Epitope-mapping with immobilized oligopeptides (peptide arrays) probed with anti-Sm sera; assay type: binding, human; details: anti-SmD sera #36, #37, #31, #84, #Sm; peptide arrays
Excerpt: The published sequences of SmD1, P13641, (Rokeach et al., 1988) and SmD3, P43331, (Lehmeier et al., 1994) were used to synthesize overlapping 15 mer peptides with a pipetting robot according to the protocol described by Gausepohl and Behn (2002). The C-terminal extensions of both polypeptides were synthesized with an offset of 2 amino acids (13 amino acids overlap). Each arginine containing peptide was synthesized as three variants, with natural arginine, with sDMA or with asymmetrical dimethylarginine (asDMA) at the respective positions. Later on, a highly reactive peptide of SmD3 was synthesized with certain combinations of natural arginine and sDMA. Following completion of the peptide synthesis non-specific binding sites were blocked by over-night incubation of the membranes in blocking buffer (BB) at room temperature (RT). After one washing step membranes were incubated with serum samples at a dilution of 1:100 in BB for 2 h at RT. Unbound antibodies were removed by three washing steps. For detection peroxidase conjugated goat-anti-human IgG antibody was diluted 1:5000 in BB and incubated for 75 min (RT). Superfluous secondary antibodies were removed by three washing steps. Finally, bound antibodies were visualized using the enhanced chemoluminiscence (ECL) detection-system.
Epitope fine-mapping of the C-terminal extensions of SmD1 and D3. To evaluate the effect of arginine-dimethylation on the antigenicity of SmD1 and SmD3 and to map relevant epitopes on both polypeptides a panel of anti-Sm sera was tested with peptide arrays (15 mer, 2 offset) covering the C-terminal region of SmD1 (P13641) and SmD3 (P43331).

[2] = test system: Lupus-prone mice; details: injection; peptide fused to a carrier protein; Riemekasten et al., 2001; cited from earlier work

Row | binding of anti-Sm antibodies (in words) [1] | Substance | effect on the pathogenic process of Lupus-prone mice [2]
1 | strong reactivity | KREAVAGRGRGRGRG [compound 10, SmD1 array peptide; text describes glycine and DMA repeats] | 
2 |  | synthetic peptide corresponding to the C-terminal extension of SmD1: literature SmD1 aa 83-119 peptide (Riemekasten et al., 1998) used in an ELISA (VEPKVKSKKREAVAGRGRGRGRGRGRGRGRGRGGPRR; UniProt P62314 83-119, looked up, fragment) | accelerate the pathogenic process
